Results: patent US5093233A, “Antagonists with position 13 modification” (Merck & Co., Inc., priority 1990, dated 1992)
Square brackets hold non-standard residues; d marks the D form. Peptide text beside a SMILES is read from it. * marks the point of attachment. Hydrocinnamoyl = O=C(CCc1ccccc1)*; Nle = CCCC[C@H](N)C(=O)O; Hexanoyl = CCCCCC(=O)*

Molecular target: T1, PTH receptor, bovine renal cortical plasma membranes (Bos taurus, UniProt Q1LZF7)
T1 construct: from tissue; host or cells: bovine renal cortex (plasma membrane preparation)
T1 sequence (Q1LZF7 29-589): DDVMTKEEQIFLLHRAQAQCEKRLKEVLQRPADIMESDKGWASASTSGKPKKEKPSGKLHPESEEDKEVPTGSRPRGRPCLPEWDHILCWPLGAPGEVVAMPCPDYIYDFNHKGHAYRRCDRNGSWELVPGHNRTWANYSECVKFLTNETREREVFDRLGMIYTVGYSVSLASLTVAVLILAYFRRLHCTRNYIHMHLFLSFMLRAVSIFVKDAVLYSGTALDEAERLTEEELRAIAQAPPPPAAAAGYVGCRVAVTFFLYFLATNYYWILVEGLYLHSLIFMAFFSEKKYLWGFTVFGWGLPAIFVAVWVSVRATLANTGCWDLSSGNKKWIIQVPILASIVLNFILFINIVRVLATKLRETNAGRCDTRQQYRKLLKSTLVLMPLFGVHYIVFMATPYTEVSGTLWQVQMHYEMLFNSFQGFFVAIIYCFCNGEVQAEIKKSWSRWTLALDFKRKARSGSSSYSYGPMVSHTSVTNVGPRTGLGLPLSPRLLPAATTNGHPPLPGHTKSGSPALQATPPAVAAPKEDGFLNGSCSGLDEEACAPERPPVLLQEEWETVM
Experiment: PTH binding assay in bovine renal membranes
Details: radioligand [Nle8,18,125I-Tyr34]bPTH(1-34)NH2, 30 min at 21° C.
Method: PTH analogues were analyzed in a new receptor assay reported in Goldman et al., Endocrin. 123: 1468-1475 (1988). The binding assay used [Nle^8,18,^125 I-Tyr^34 ]bPTH (1-34)NH2 which was purified by HPLC (Novapak C18, 32-35% CH3 CN in 0.1% TFA) and was stored as aliquots in 25 mM TrisHCl/1%BSA at -70° C. Bovine renal cortical plasma membranes were incubated with radioligand (25,000 cpm) in a Tris-containing buffer (250 ul) for 30 min. at 21° C. Once equilibrium was reached, bound and free radioligand were separated by centrifugation. High specific binding (85%) to bovine renal cortical membranes was obtained consistently.

Kb | SMILES
4 ± 1 nM | CCCC[C@H](NC(=O)[C@H](CO)NC(=O)[C@H](CO)NC(=O)[C@H](CC(C)C)NC(=O)[C@H](Cc1c[nH]cn1)NC(=O)[C@H](CCCCNC(=O)CCc1ccccc1)NC(=O)[C@@H](Cc1c[nH]c2ccccc12)NC(=O)[C@H](CC(C)C)NC(=O)[C@H](CC(N)=O)NC(=O)[C@H](Cc1c[nH]cn1)NC(=O)[C@H](CCCC)NC(=O)[C@@H](N)Cc1ccccc1)C(=O)N[C@@H](CCC(=O)O)C(=O)N[C@@H](CCCNC(=N)N)C(=O)N[C@H](C(=O)N[C@@H](CCC(=O)O)C(=O)N[C@@H](Cc1c[nH]c2ccccc12)C(=O)N[C@@H](CC(C)C)C(=O)N[C@@H](CCCNC(=N)N)C(=O)N[C@@H](CCCCN)C(=O)N[C@@H](CCCCN)C(=O)N[C@@H](CC(C)C)C(=O)N[C@@H](CCC(N)=O)C(=O)N[C@@H](CC(=O)O)C(=O)N[C@H](C(=O)N[C@@H](Cc1c[nH]cn1)C(=O)N[C@@H](CC(N)=O)C(=O)N[C@@H](Cc1ccc(O)cc1)C(N)=O)C(C)C)C(C)C [Structure 3, [Nle^8,18,D-Trp^12,Lys^13 (N^ε --CO(CH2)2 -Phenyl),Tyr^34]bPTH(7-34)NH2]
4 ± 1 nM | CCCCCC(=O)N[C@@H](Cc1c[nH]cn1)C(=O)N[C@@H](CC(N)=O)C(=O)N[C@@H](CC(C)C)C(=O)N[C@H](Cc1c[nH]c2ccccc12)C(=O)N[C@@H](CCCCNC(=O)CCc1ccccc1)C(=O)N[C@@H](Cc1c[nH]cn1)C(=O)N[C@@H](CC(C)C)C(=O)N[C@@H](CO)C(=O)N[C@@H](CO)C(=O)N[C@@H](CCCC)C(=O)N[C@@H](CCC(=O)O)C(=O)N[C@@H](CCCNC(=N)N)C(=O)N[C@H](C(=O)N[C@@H](CCC(=O)O)C(=O)N[C@@H](Cc1c[nH]c2ccccc12)C(=O)N[C@@H](CC(C)C)C(=O)N[C@@H](CCCNC(=N)N)C(=O)N[C@@H](CCCCN)C(=O)N[C@@H](CCCCN)C(=O)N[C@@H](CC(C)C)C(=O)N[C@@H](CCC(N)=O)C(=O)N[C@@H](CC(=O)O)C(=O)N[C@H](C(=O)N[C@@H](Cc1c[nH]cn1)C(=O)N[C@@H](CC(N)=O)C(=O)N[C@@H](Cc1ccc(O)cc1)C(N)=O)C(C)C)C(C)C [Structure 2, desamino[Nle^8,18,D-Trp^12,Lys^13 (N^ε --CO(CH2)2 -Phenyl),Tyr^34]bPTH(8-34)NH2] (Hexanoyl-HNL[dW]K(Hydrocinnamoyl)HLSS[Nle]ERVEWLRKKLQDVHNY-NH2)
13 ± 2 nM | CCCC[C@H](NC(=O)CCc1ccccc1)C(=O)N[C@@H](Cc1c[nH]cn1)C(=O)N[C@@H](CC(N)=O)C(=O)N[C@@H](CC(C)C)C(=O)N[C@H](Cc1c[nH]c2ccccc12)C(=O)N[C@@H](CCCCNC(=O)CCc1ccccc1)C(=O)N[C@@H](Cc1c[nH]cn1)C(=O)N[C@@H](CC(C)C)C(=O)N[C@@H](CO)C(=O)N[C@@H](CO)C(=O)N[C@@H](CCCC)C(=O)N[C@@H](CCC(=O)O)C(=O)N[C@@H](CCCNC(=N)N)C(=O)N[C@H](C(=O)N[C@@H](CCC(=O)O)C(=O)N[C@@H](Cc1c[nH]c2ccccc12)C(=O)N[C@@H](CC(C)C)C(=O)N[C@@H](CCCNC(=N)N)C(=O)N[C@@H](CCCCN)C(=O)N[C@@H](CCCCN)C(=O)N[C@@H](CC(C)C)C(=O)N[C@@H](CCC(N)=O)C(=O)N[C@@H](CC(=O)O)C(=O)N[C@H](C(=O)N[C@@H](Cc1c[nH]cn1)C(=O)N[C@@H](CC(N)=O)C(=O)N[C@@H](Cc1ccc(O)cc1)C(N)=O)C(C)C)C(C)C [Structure 1, desamino[Nle^8,18,D-Trp^12,Lys^13 (N^ε --CO(CH2)2 -Phenyl),Tyr^34]bPTH(7-34)NH2] (Hydrocinnamoyl-[Nle]HNL[dW]K(Hydrocinnamoyl)HLSS[Nle]ERVEWLRKKLQDVHNY-NH2)
35 ± 4 nM | CCCC[C@H](NC(=O)[C@H](CO)NC(=O)[C@H](CO)NC(=O)[C@H](CC(C)C)NC(=O)[C@H](Cc1c[nH]cn1)NC(=O)[C@H](CCCCN(CC(C)C)CC(C)C)NC(=O)[C@@H](Cc1c[nH]c2ccccc12)NC(=O)[C@H](CC(C)C)NC(=O)[C@H](CC(N)=O)NC(=O)[C@H](Cc1c[nH]cn1)NC(=O)[C@H](CCCC)NC(=O)[C@@H](N)Cc1ccccc1)C(=O)N[C@@H](CCC(=O)O)C(=O)N[C@@H](CCCNC(=N)N)C(=O)N[C@H](C(=O)N[C@@H](CCC(=O)O)C(=O)N[C@@H](Cc1c[nH]c2ccccc12)C(=O)N[C@@H](CC(C)C)C(=O)N[C@@H](CCCNC(=N)N)C(=O)N[C@@H](CCCCN)C(=O)N[C@@H](CCCCN)C(=O)N[C@@H](CC(C)C)C(=O)N[C@@H](CCC(N)=O)C(=O)N[C@@H](CC(=O)O)C(=O)N[C@H](C(=O)N[C@@H](Cc1c[nH]cn1)C(=O)N[C@@H](CC(N)=O)C(=O)N[C@@H](Cc1ccc(O)cc1)C(N)=O)C(C)C)C(C)C [Structure 4, [Nle^8,18,D-Trp^12,Lys^13 (N^ε,N^ε -diisobutyl),Tyr^34]bPTH(7-34)NH2]
